Measured values published in patent publication US4200575A, “7[(2-Thiazolyl)-2-(oxoimino)acetamido]cephalosporin derivatives” (Takeda Chemical Industries, Ltd., priority 1977, dated 1980).

How the values were obtained:
Assay in all cases: Minimal inhibitory concentration (M.I.C.), agar dilution method
Settings in all cases: TSA, inoculum 10^7 /ml
S. aureus 1840 = type: cell-based, Staphylococcus aureus
Source text: (§1) (a) Determination of minimal inhibitory concentrations (Tables 1 to 8):
(§2) Procedure: agar dilution method

S. aureus 209P = type: cell-based, Staphylococcus aureus
Source text: as §1, §2

E. coli NIHJ JC-2 = type: cell-based, Escherichia coli
Source text: as §1, §2

E. coli T-7 = type: cell-based, Escherichia coli
Source text: as §1, §2

E. coli 0-111 = type: cell-based, Escherichia coli
Method in brief: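 MIC against E. coli O-111 was determined by agar dilution.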

K. pneumoniae DT = type: cell-based, Klebsiella pneumoniae
Source text: as §1, §2

K. pneumoniae GN 3835 = type: cell-based, Klebsiella pneumoniae
Source text: as §1, §2

S. marcescens IFO 12648 = type: cell-based, Serratia marcescens
Source text: as §1, §2

S. marcescens TN 24 = type: cell-based, Serratia marcescens
Source text: as §1, §2

P. vulgaris GN 4413 = type: cell-based, Proteus vulgaris
Source text: as §1, §2

P. vulgaris IFO 3988 = type: cell-based, Proteus vulgaris
Source text: as §1, §2

P. mirabilis GN 4359 = type: cell-based, Proteus mirabilis
Source text: as §1, §2

P. morganii IFO 3168 = type: cell-based, Proteus morganii
Source text: as §1, §2

P. rettgeri GN4733 = type: cell-based, Proteus rettgeri
Source text: as §1, §2

P. rettgeri TN 338 = type: cell-based, Proteus rettgeri
Source text: as §1, §2

E. cloacae TN 1282 = type: cell-based, Enterobacter cloacae
Source text: as §1, §2

C. freundii GN 1706 = type: cell-based, Citrobacter freundii
Source text: as §1, §2

C. freundii GN 99 = type: cell-based, Citrobacter freundii
Source text: as §1, §2

| SMILES | minimal inhibitory concentration (M.I.C.) (S. aureus 1840) | minimal inhibitory concentration (M.I.C.) (S. aureus 209P) | minimal inhibitory concentration (M.I.C.) (E. coli NIHJ JC-2) | minimal inhibitory concentration (M.I.C.) (E. coli T-7) | minimal inhibitory concentration (M.I.C.) (E. coli 0-111) | minimal inhibitory concentration (M.I.C.) (K. pneumoniae DT) | minimal inhibitory concentration (M.I.C.) (K. pneumoniae GN 3835) | minimal inhibitory concentration (M.I.C.) (S. marcescens IFO 12648) | minimal inhibitory concentration (M.I.C.) (S. marcescens TN 24) | minimal inhibitory concentration (M.I.C.) (P. vulgaris GN 4413) | minimal inhibitory concentration (M.I.C.) (P. vulgaris IFO 3988) | minimal inhibitory concentration (M.I.C.) (P. mirabilis GN 4359) | minimal inhibitory concentration (M.I.C.) (P. morganii IFO 3168) | minimal inhibitory concentration (M.I.C.) (P. rettgeri GN4733) | minimal inhibitory concentration (M.I.C.) (P. rettgeri TN 338) | minimal inhibitory concentration (M.I.C.) (E. cloacae TN 1282) | minimal inhibitory concentration (M.I.C.) (C. freundii GN 1706) | minimal inhibitory concentration (M.I.C.) (C. freundii GN 99) |
| --- | --- | --- | --- | --- | --- | --- | --- | --- | --- | --- | --- | --- | --- | --- | --- | --- | --- | --- |
| CCCCNC(=O)O/N=C(\C(=O)NC1C(=O)N2C(C(=O)O)=C(COC(C)=O)CSC12)c1csc(=N)[nH]1 (stereo not drawn) [Example II - 20] | 1.56 | 1.56 | 0.1 | 3.13 | 0.024 | 0.05 | 0.39 | 6.25 | 12.5 | 12.5 | 0.2 | 0.1 | 0.39 | 0.05 | ≤ 0.012 | 6.25 | 0.39 | 0.39 |
| CCCNC(=O)O/N=C(\C(=O)NC1C(=O)N2C(C(=O)O)=C(C)CSC12)c1csc(=N)[nH]1 (stereo not drawn) [Example II - 15] | 12.5 | 12.5 | 6.25 | 25 | 3.13 | 3.13 | 6.25 | > 100 | > 100 | 50 | 12.5 | 3.13 | 50 | 0.39 | 0.1 | > 100 | 12.5 | 12.5 |
| CNC(=O)O/N=C(\C(=O)NC1C(=O)N2C(C(=O)O)=C(CSc3nnc(C)o3)CSC12)c1csc(=N)[nH]1 (stereo not drawn) [Example IV - 10] | 3.13 | 1.56 | 0.39 | 6.25 | ≤ 0.2 | ≤ 0.2 | 0.78 | 6.25 | 6.25 | 25 | 0.39 | 0.39 | 0.39 | 0.78 | ≤ 0.2 | 3.13 | 0.78 | 0.39 |
| CNC(=O)O/N=C(\C(=O)NC1C(=O)N2C(C(=O)O)=C(CSc3nc(C)ns3)CSC12)c1csc(=N)[nH]1 (stereo not drawn) [Example IV - 8] | 1.56 | 0.78 | 1.56 | 6.25 | 0.39 | 0.39 | 3.13 | 6.25 | 6.25 | 6.25 | 0.39 | 0.78 | 3.13 | 0.78 | ≤ 0.2 | 6.25 | 3.13 | 0.78 |
| CCNC(=O)O/N=C(\C(=O)NC1C(=O)N2C(C(=O)O)=C(CSc3nnnn3C)CSC12)c1csc(=N)[nH]1 (stereo not drawn) [Example II - 9] | 3.13 | 1.56 | 0.39 | 3.13 | 0.05 | 0.1 | 0.78 | 3.13 | 3.13 | 25 | 0.2 | 0.39 | 1.56 | 0.2 | ≤ 0.012 | 6.25 | 0.78 | 0.2 |
| CCCNC(=O)O/N=C(\C(=O)NC1C(=O)N2C(C(=O)O)=C(COC(C)=O)CSC12)c1csc(=N)[nH]1 (stereo not drawn) [Example II - 12] | 1.56 | 1.56 | 0.39 | 3.13 | 0.024 | 0.1 | 0.39 | 6.25 | 12.5 | 12.5 | 0.39 | 0.1 | 0.78 | 0.2 | ≤ 0.012 | 6.25 | 0.78 | 0.39 |
| CCNC(=O)O/N=C(\C(=O)NC1C(=O)N2C(C(=O)O)=C(C)CSC12)c1csc(=N)[nH]1 (stereo not drawn) [Example II - 11] | 25 | 25 | 6.25 | 12.5 | 1.56 | 1.56 | 3.13 | 100 | 100 | 50 | 3.13 | 1.56 | 25 | 0.39 | 0.05 | 25 | 12.5 | 6.25 |
| CNC(=O)O/N=C(\C(=O)NC1C(=O)N2C(C(=O)[O-])=C(C[n+]3ccc(C(N)=O)cc3)CSC12)c1csc(=N)[nH]1 (stereo not drawn) [Example IV - 2, 7-[2-(2-imino-4-thiazolin-4-yl)-2-methylcarbamoyloximinoacetamido]-3-(4-carbamoylpyridiniummethyl)-3-cephem-4-carboxylate (syn-isomer)] | 3.13 | 3.13 | 0.78 | 6.25 | 0.2 | 0.39 | 1.56 | 3.13 | 3.13 | 12.5 | 0.78 | 1.56 | 0.78 | 0.78 | 0.1 | 3.13 | 1.56 | 0.78 |
| CNC(=O)O/N=C(\C(=O)NC1C(=O)N2C(C(=O)O)=C(CSc3nnc(CO)n3C)CSC12)c1csc(=N)[nH]1 (stereo not drawn) [Example IV - 5] | 6.25 | 6.25 | ≤ 0.2 | 1.56 | ≤ 0.2 | ≤ 0.2 | 0.39 | 3.13 | 3.13 | 25 | 0.39 | 0.39 | 0.39 | 0.78 | ≤ 0.2 | 3.13 | 0.78 | 0.39 |
